The supplement of paper PMC12463676, “Small-molecule dissolution of stress granules by redox modulation benefits ALS models” (Nature Chemical Biology, 2025)

Assays:
lipoamide = compound: NC(=O)CCCCC1CCSS1 [lipoamide]; experiment: thermal stability z-score vs DMSO; higher = more thermally stabilized by treatment; conditions: HeLa, lipoamide concentration 100 µM
Experimental: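 Cellular thermal proteome profiling in HeLa cells. Cells were treated with 100 µM lipoamide for 1 h, with or without 1 mM arsenate for a further 1 h, then heated to ten temperatures (37-66.3 °C), and soluble protein was quantified by TMT mass spectrometry relative to 0.1% DMSO controls. The thermal stability score (sum of log2 fold changes minus the abundance score) was transformed to a z-score; mean of n = 3 experiments.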

potassium arsenate = compound: O=[As]([O-])(O)O.[K+] [potassium arsenate]; experiment: as above; conditions: HeLa; arsenate concentration 1 mM
Experimental: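 Cellular thermal proteome profiling in HeLa cells treated with 1 mM arsenate for 1 h (DMSO pretreatment), heated to ten temperatures (37-66.3 °C). Soluble protein was quantified by TMT mass spectrometry relative to DMSO controls; the thermal stability score was transformed to a z-score; mean of n = 3 experiments.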

[1] = arsenate co-treatment: 1 mM arsenate 1 h
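Also: each temperature applied for 3 min, abundance score taken as mean log2 fold change at the two lowest temperatures, z-score obtained by mean subtraction and division by SD.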

CNTLN (UniProt Q9NXG0)
thermal stability z-score (lipoamide; [1]): -0.163 | thermal stability z-score (lipoamide; arsenate co-treatment: none): -0.342 | thermal stability z-score (potassium arsenate): -0.0711

CUL1 (UniProt Q13616)
thermal stability z-score (lipoamide; [1]): 0.708 | thermal stability z-score (lipoamide; arsenate co-treatment: none): 0.275 | thermal stability z-score (potassium arsenate): -0.108

HERC2 (UniProt O95714)
thermal stability z-score (lipoamide; [1]): -0.947 | thermal stability z-score (lipoamide; arsenate co-treatment: none): -1.04 | thermal stability z-score (potassium arsenate): 0.0415

POLR3A (UniProt O14802)
thermal stability z-score (lipoamide; [1]): 0.0126 | thermal stability z-score (lipoamide; arsenate co-treatment: none): -0.887 | thermal stability z-score (potassium arsenate): -1.69

PAK1 (UniProt Q13153)
thermal stability z-score (lipoamide; [1]): 0.413 | thermal stability z-score (lipoamide; arsenate co-treatment: none): 0.286 | thermal stability z-score (potassium arsenate): 0.771

ANKRD44 (UniProt Q8N8A2)
thermal stability z-score (lipoamide; [1]): -0.00602 | thermal stability z-score (lipoamide; arsenate co-treatment: none): -0.323 | thermal stability z-score (potassium arsenate): -0.0202

DSG1 (UniProt Q02413)
thermal stability z-score (lipoamide; [1]): 11 | thermal stability z-score (lipoamide; arsenate co-treatment: none): 13.3 | thermal stability z-score (potassium arsenate): 1.69

MYPN (UniProt Q86TC9)
Sequence of UniProt Q86TC9 (Q86TC9 whole entry): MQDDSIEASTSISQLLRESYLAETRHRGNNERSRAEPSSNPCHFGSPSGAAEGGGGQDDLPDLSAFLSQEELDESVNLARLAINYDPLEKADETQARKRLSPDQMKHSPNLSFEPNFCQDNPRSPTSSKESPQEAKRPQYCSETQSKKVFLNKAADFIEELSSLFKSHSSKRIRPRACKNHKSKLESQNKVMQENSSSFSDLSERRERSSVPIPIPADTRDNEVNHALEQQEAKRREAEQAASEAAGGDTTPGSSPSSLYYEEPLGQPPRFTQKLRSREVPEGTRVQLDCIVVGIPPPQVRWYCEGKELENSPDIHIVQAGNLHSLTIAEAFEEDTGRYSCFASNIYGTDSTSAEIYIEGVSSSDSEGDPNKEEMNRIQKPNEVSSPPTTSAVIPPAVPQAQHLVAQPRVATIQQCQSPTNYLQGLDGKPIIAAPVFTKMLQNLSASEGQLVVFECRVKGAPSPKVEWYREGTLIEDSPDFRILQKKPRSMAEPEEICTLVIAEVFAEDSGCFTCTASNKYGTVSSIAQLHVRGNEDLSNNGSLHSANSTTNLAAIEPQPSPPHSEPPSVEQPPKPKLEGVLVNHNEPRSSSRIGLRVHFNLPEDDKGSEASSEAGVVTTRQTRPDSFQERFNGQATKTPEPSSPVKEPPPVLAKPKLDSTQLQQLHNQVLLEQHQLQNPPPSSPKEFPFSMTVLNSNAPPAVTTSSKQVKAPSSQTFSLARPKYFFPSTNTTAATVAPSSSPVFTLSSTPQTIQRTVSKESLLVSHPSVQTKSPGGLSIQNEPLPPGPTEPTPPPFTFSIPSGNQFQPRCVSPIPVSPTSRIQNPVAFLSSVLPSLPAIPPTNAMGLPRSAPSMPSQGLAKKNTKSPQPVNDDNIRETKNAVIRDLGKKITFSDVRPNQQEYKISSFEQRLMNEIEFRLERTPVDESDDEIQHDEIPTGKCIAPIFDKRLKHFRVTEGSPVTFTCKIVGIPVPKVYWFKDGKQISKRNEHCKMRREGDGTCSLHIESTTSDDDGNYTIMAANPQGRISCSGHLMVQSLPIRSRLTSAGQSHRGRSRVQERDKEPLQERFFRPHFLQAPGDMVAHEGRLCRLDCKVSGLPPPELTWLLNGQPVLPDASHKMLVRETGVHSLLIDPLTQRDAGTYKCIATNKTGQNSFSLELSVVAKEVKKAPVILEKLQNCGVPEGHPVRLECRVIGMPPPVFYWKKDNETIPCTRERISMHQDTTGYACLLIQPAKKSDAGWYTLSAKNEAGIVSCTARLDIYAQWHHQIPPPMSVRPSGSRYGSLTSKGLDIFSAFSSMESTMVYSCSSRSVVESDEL
thermal stability z-score (lipoamide; [1]): 0.126 | thermal stability z-score (lipoamide; arsenate co-treatment: none): 0.447 | thermal stability z-score (potassium arsenate): 0.803

HADHB (UniProt P55084)
thermal stability z-score (lipoamide; [1]): -0.0335 | thermal stability z-score (lipoamide; arsenate co-treatment: none): 0.077 | thermal stability z-score (potassium arsenate): -0.422

RABIF (UniProt P47224)
thermal stability z-score (lipoamide; [1]): 0.243 | thermal stability z-score (lipoamide; arsenate co-treatment: none): 0.233 | thermal stability z-score (potassium arsenate): -0.572

ARFGEF1 (UniProt Q9Y6D6)
thermal stability z-score (lipoamide; [1]): -0.0608 | thermal stability z-score (lipoamide; arsenate co-treatment: none): -0.273 | thermal stability z-score (potassium arsenate): -0.154

VWA9 (UniProt Q96SY0)
Sequence of UniProt Q96SY0 (Q96SY0 whole entry): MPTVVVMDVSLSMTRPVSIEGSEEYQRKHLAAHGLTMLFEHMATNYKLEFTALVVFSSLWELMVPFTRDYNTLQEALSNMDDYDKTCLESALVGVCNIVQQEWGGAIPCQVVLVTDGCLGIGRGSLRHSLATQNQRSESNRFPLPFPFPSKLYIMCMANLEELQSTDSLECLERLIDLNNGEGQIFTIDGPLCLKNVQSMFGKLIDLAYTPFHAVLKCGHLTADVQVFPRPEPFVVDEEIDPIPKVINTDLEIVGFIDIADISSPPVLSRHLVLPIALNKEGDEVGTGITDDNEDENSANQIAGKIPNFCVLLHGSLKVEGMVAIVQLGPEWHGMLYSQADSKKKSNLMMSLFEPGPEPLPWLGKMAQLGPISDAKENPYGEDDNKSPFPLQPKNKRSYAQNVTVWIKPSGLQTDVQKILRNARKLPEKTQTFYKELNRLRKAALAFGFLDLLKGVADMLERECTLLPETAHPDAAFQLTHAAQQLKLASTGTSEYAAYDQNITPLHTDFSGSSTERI
thermal stability z-score (lipoamide; [1]): 0.159 | thermal stability z-score (lipoamide; arsenate co-treatment: none): 0.404 | thermal stability z-score (potassium arsenate): -0.114

FAM3A (UniProt P98173)
thermal stability z-score (lipoamide; [1]): 0.0593 | thermal stability z-score (lipoamide; arsenate co-treatment: none): -0.109 | thermal stability z-score (potassium arsenate): 0.363

NOP10 (UniProt Q9NPE3)
Sequence of UniProt Q9NPE3 (Q9NPE3 whole entry): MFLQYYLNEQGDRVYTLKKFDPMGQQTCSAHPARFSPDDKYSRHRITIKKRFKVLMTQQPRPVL
thermal stability z-score (lipoamide; [1]): 0.405 | thermal stability z-score (lipoamide; arsenate co-treatment: none): -0.0767 | thermal stability z-score (potassium arsenate): 0.522

SNRPD3 (UniProt P62318)
thermal stability z-score (lipoamide; [1]): 0.93 | thermal stability z-score (lipoamide; arsenate co-treatment: none): 0.207 | thermal stability z-score (potassium arsenate): 0.399

PHF3 (UniProt Q92576)
thermal stability z-score (lipoamide; [1]): 1.05 | thermal stability z-score (lipoamide; arsenate co-treatment: none): 0.76 | thermal stability z-score (potassium arsenate): -0.848

CTBP1 (UniProt Q13363)
thermal stability z-score (lipoamide; [1]): 1.13 | thermal stability z-score (lipoamide; arsenate co-treatment: none): -0.19 | thermal stability z-score (potassium arsenate): 0.629

ECI2 (UniProt O75521)
thermal stability z-score (lipoamide; [1]): 0.0605 | thermal stability z-score (lipoamide; arsenate co-treatment: none): -0.724 | thermal stability z-score (potassium arsenate): -0.44

TXNRD2 (UniProt Q9NNW7)
thermal stability z-score (lipoamide; [1]): 0.179 | thermal stability z-score (lipoamide; arsenate co-treatment: none): 0.166 | thermal stability z-score (potassium arsenate): 4.89

PGS1 (UniProt Q32NB8)
Sequence of UniProt Q32NB8 (Q32NB8 whole entry): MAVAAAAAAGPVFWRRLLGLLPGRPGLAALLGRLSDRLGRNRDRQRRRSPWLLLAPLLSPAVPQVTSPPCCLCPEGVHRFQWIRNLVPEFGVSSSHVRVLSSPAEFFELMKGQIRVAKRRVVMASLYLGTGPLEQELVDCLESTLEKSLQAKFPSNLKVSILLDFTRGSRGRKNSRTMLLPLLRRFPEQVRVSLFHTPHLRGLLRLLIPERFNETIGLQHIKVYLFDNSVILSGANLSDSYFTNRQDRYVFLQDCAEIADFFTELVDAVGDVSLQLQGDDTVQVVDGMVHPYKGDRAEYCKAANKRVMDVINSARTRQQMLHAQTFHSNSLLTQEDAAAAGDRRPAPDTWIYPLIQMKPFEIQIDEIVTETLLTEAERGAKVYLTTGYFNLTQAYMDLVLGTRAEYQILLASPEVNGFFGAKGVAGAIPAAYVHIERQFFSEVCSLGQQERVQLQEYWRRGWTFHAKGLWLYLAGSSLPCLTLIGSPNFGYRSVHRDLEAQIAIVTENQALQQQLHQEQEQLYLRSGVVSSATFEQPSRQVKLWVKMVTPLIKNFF
thermal stability z-score (lipoamide; [1]): 0.522 | thermal stability z-score (lipoamide; arsenate co-treatment: none): 0.683 | thermal stability z-score (potassium arsenate): -0.266

CDAN1 (UniProt Q8IWY9)
thermal stability z-score (lipoamide; [1]): -0.217 | thermal stability z-score (lipoamide; arsenate co-treatment: none): -0.235 | thermal stability z-score (potassium arsenate): -0.113

FNBP1 (UniProt Q96RU3)
thermal stability z-score (lipoamide; [1]): 0.146 | thermal stability z-score (lipoamide; arsenate co-treatment: none): 0.0859 | thermal stability z-score (potassium arsenate): 0.336

HACD3 (UniProt Q9P035)
Sequence of UniProt Q9P035 (Q9P035 whole entry): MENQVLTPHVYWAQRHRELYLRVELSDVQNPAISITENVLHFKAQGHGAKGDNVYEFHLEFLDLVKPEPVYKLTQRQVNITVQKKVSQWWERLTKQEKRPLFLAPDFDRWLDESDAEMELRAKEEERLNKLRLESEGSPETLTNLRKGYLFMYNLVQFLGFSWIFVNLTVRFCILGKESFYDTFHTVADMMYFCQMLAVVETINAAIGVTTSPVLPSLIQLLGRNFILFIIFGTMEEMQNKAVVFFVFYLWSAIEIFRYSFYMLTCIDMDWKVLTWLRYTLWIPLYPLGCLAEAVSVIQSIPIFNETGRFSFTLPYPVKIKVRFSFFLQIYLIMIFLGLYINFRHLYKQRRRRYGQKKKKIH
thermal stability z-score (lipoamide; [1]): -1.92 | thermal stability z-score (lipoamide; arsenate co-treatment: none): -0.722 | thermal stability z-score (potassium arsenate): -1.47

PIGU (UniProt Q9H490)
thermal stability z-score (lipoamide; [1]): -0.834 | thermal stability z-score (lipoamide; arsenate co-treatment: none): -0.665 | thermal stability z-score (potassium arsenate): 0.169

BPHL (UniProt Q86WA6)
thermal stability z-score (lipoamide; [1]): -0.428 | thermal stability z-score (lipoamide; arsenate co-treatment: none): -0.368 | thermal stability z-score (potassium arsenate): -1.21

VPS33A (UniProt Q96AX1)
thermal stability z-score (lipoamide; [1]): -0.0394 | thermal stability z-score (lipoamide; arsenate co-treatment: none): -0.0312 | thermal stability z-score (potassium arsenate): -0.027

U2AF1L5|U2AF1
thermal stability z-score (lipoamide; [1]): -0.511 | thermal stability z-score (lipoamide; arsenate co-treatment: none): -0.0589 | thermal stability z-score (potassium arsenate): -1.4

TMX2 (UniProt Q9Y320)
thermal stability z-score (lipoamide; [1]): -1.05 | thermal stability z-score (lipoamide; arsenate co-treatment: none): -2.85 | thermal stability z-score (potassium arsenate): -1.96

TRAF7 (UniProt Q6Q0C0)
thermal stability z-score (lipoamide; [1]): 0.0114 | thermal stability z-score (lipoamide; arsenate co-treatment: none): -0.686 | thermal stability z-score (potassium arsenate): -1.01

NECAP2 (UniProt Q9NVZ3)
thermal stability z-score (lipoamide; [1]): 0.16 | thermal stability z-score (lipoamide; arsenate co-treatment: none): -0.169 | thermal stability z-score (potassium arsenate): -0.238

C14ORF166 (UniProt Q9Y224)
thermal stability z-score (lipoamide; [1]): 0.126 | thermal stability z-score (lipoamide; arsenate co-treatment: none): 0.251 | thermal stability z-score (potassium arsenate): -0.994

PCLO (UniProt Q9Y6V0)
thermal stability z-score (lipoamide; [1]): 0.448 | thermal stability z-score (lipoamide; arsenate co-treatment: none): 0.235 | thermal stability z-score (potassium arsenate): -0.0814

ELAVL2 (UniProt Q12926)
thermal stability z-score (lipoamide; [1]): -0.19 | thermal stability z-score (lipoamide; arsenate co-treatment: none): -0.197 | thermal stability z-score (potassium arsenate): -0.564

CAV1 (UniProt Q03135)
thermal stability z-score (lipoamide; [1]): 0.49 | thermal stability z-score (lipoamide; arsenate co-treatment: none): 0.74 | thermal stability z-score (potassium arsenate): 1.02

SCRN3 (UniProt Q0VDG4)
thermal stability z-score (lipoamide; [1]): -0.445 | thermal stability z-score (lipoamide; arsenate co-treatment: none): -0.169 | thermal stability z-score (potassium arsenate): -0.0506

CYB5R4 (UniProt Q7L1T6)
Sequence of UniProt Q7L1T6 (Q7L1T6 whole entry): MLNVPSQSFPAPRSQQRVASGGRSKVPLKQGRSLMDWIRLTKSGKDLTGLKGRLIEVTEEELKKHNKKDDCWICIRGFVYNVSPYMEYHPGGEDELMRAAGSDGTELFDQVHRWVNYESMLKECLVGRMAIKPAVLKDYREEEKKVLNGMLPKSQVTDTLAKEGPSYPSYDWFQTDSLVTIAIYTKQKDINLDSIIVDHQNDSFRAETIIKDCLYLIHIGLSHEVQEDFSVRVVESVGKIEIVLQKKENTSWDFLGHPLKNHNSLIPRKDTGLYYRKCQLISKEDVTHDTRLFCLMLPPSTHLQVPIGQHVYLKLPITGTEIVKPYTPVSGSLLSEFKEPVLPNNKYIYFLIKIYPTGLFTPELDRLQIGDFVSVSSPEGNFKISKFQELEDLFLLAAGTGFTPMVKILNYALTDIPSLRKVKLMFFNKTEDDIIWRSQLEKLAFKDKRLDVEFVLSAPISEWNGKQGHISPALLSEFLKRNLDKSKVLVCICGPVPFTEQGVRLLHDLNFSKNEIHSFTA
thermal stability z-score (lipoamide; [1]): 0.477 | thermal stability z-score (lipoamide; arsenate co-treatment: none): 0.1 | thermal stability z-score (potassium arsenate): -0.243

CCDC117 (UniProt Q8IWD4)
thermal stability z-score (lipoamide; [1]): -0.191 | thermal stability z-score (lipoamide; arsenate co-treatment: none): -0.317 | thermal stability z-score (potassium arsenate): -0.388

CAPRIN1 (UniProt Q14444)
thermal stability z-score (lipoamide; [1]): 0.381 | thermal stability z-score (lipoamide; arsenate co-treatment: none): 0.754 | thermal stability z-score (potassium arsenate): 0.295

RPL19 (UniProt P84098)
thermal stability z-score (lipoamide; [1]): 0.269 | thermal stability z-score (lipoamide; arsenate co-treatment: none): -0.195 | thermal stability z-score (potassium arsenate): -1.08

EIF1AD (UniProt Q8N9N8)
thermal stability z-score (lipoamide; [1]): 0.433 | thermal stability z-score (lipoamide; arsenate co-treatment: none): 0.98 | thermal stability z-score (potassium arsenate): 1.09

RASSF5 (UniProt Q8WWW0)
thermal stability z-score (lipoamide; [1]): -0.444 | thermal stability z-score (lipoamide; arsenate co-treatment: none): -0.459 | thermal stability z-score (potassium arsenate): 0.498

LAMA3 (UniProt Q16787)
thermal stability z-score (lipoamide; [1]): 0.341 | thermal stability z-score (lipoamide; arsenate co-treatment: none): -0.204 | thermal stability z-score (potassium arsenate): 0.34

LETMD1 (UniProt Q6P1Q0)
thermal stability z-score (lipoamide; [1]): 0.197 | thermal stability z-score (lipoamide; arsenate co-treatment: none): -0.0626 | thermal stability z-score (potassium arsenate): 0.0642

PLOD2 (UniProt O00469)
thermal stability z-score (lipoamide; [1]): -3.92 | thermal stability z-score (lipoamide; arsenate co-treatment: none): -3.35 | thermal stability z-score (potassium arsenate): 0.877

UBQLN4 (UniProt Q9NRR5)
thermal stability z-score (lipoamide; [1]): 1.81 | thermal stability z-score (lipoamide; arsenate co-treatment: none): 1.78 | thermal stability z-score (potassium arsenate): 0.334

TRIP13 (UniProt Q15645)
thermal stability z-score (lipoamide; [1]): -0.215 | thermal stability z-score (lipoamide; arsenate co-treatment: none): -0.735 | thermal stability z-score (potassium arsenate): -0.184

AIM1
thermal stability z-score (lipoamide; [1]): -0.151 | thermal stability z-score (lipoamide; arsenate co-treatment: none): -0.209 | thermal stability z-score (potassium arsenate): 0.00488

PIH1D1 (UniProt Q9NWS0)
thermal stability z-score (lipoamide; [1]): 1.07 | thermal stability z-score (lipoamide; arsenate co-treatment: none): 0.114 | thermal stability z-score (potassium arsenate): 0.538

HSPA9 (UniProt P38646)
Sequence of UniProt P38646 (P38646 whole entry): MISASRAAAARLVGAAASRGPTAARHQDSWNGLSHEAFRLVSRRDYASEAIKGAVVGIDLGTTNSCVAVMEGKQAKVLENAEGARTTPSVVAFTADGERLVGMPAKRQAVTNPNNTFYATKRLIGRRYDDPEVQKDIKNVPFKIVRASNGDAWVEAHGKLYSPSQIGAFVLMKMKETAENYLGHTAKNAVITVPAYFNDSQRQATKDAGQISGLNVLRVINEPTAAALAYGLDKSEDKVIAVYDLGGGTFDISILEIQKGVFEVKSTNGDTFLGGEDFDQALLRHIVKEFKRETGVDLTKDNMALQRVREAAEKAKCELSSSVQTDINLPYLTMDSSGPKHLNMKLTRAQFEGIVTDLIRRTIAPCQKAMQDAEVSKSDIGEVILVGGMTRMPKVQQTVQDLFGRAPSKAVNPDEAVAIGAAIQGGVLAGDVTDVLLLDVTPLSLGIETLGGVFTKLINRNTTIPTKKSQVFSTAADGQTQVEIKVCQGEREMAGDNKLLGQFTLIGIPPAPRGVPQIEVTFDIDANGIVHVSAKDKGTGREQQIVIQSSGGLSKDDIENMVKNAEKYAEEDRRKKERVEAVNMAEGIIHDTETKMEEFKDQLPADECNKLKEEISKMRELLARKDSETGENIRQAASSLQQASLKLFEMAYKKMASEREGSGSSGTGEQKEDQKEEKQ
thermal stability z-score (lipoamide; [1]): -1.1 | thermal stability z-score (lipoamide; arsenate co-treatment: none): -0.531 | thermal stability z-score (potassium arsenate): -1.36

GEMIN2 (UniProt O14893)
thermal stability z-score (lipoamide; [1]): -0.139 | thermal stability z-score (lipoamide; arsenate co-treatment: none): -0.0485 | thermal stability z-score (potassium arsenate): -0.345

PSME1 (UniProt Q06323)
thermal stability z-score (lipoamide; [1]): -0.372 | thermal stability z-score (lipoamide; arsenate co-treatment: none): -0.217 | thermal stability z-score (potassium arsenate): 0.405

LSM3 (UniProt P62310)
thermal stability z-score (lipoamide; [1]): 0.229 | thermal stability z-score (lipoamide; arsenate co-treatment: none): -0.327 | thermal stability z-score (potassium arsenate): -0.624

HYOU1 (UniProt Q9Y4L1)
Sequence of UniProt Q9Y4L1 (Q9Y4L1 whole entry): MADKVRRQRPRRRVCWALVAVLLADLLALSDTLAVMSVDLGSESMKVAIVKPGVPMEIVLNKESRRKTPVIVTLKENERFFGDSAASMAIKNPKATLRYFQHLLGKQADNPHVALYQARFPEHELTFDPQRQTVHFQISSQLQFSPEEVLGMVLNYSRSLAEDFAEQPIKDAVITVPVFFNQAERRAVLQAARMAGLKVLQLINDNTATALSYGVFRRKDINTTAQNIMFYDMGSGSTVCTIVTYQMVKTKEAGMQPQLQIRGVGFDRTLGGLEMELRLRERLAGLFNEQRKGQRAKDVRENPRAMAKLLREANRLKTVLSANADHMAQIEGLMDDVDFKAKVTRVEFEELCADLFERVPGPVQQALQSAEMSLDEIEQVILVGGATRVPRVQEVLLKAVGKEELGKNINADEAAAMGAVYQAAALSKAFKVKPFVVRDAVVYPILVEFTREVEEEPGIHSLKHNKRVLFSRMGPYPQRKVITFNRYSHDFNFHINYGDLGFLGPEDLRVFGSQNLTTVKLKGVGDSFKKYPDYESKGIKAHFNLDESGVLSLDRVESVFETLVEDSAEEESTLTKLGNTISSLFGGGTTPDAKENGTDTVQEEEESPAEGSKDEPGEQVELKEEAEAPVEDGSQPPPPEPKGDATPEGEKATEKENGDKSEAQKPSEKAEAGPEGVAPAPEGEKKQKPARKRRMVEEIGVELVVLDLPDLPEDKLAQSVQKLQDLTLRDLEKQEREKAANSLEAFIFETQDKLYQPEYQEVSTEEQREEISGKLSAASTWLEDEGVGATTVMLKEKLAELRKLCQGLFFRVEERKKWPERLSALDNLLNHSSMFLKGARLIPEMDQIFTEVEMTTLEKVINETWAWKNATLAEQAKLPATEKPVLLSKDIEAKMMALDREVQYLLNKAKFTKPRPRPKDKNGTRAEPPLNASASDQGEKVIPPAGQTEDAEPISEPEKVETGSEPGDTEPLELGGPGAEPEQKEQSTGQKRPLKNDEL
thermal stability z-score (lipoamide; [1]): -4.47 | thermal stability z-score (lipoamide; arsenate co-treatment: none): -3.4 | thermal stability z-score (potassium arsenate): 0.592

FOXK1 (UniProt P85037)
thermal stability z-score (lipoamide; [1]): 0.345 | thermal stability z-score (lipoamide; arsenate co-treatment: none): -0.0499 | thermal stability z-score (potassium arsenate): 1.86

ZPR1 (UniProt O75312)
thermal stability z-score (lipoamide; [1]): 0.753 | thermal stability z-score (lipoamide; arsenate co-treatment: none): -0.187 | thermal stability z-score (potassium arsenate): -1.09
